One assay deals with GM1 production. The assay can be described thus: cells. It is filed as cell-based. Particulars: Homo sapiens, Jurkat, 72 h.
Assay [1] has as its target glucosylceramide synthase (GCS) (Homo sapiens (Human), UniProt Q16739). Put plainly: Evaluation of inhibitory activities against GCS (enzyme reaction with A549 cell lysate, NBD C6-ceramide, HPLC fluorescence). It is filed as biochemical. Particulars: GCS activity in A549 cell lysate, 37° C. for 90 minutes. In short, it runs like this:
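Lysate of A549 cells in 50 mM HEPES pH 7.3 incubated with test compound and NBD C6-ceramide at 37 °C for 90 min; lipids extracted with chloroform/methanol and GlcCer and ceramide peaks quantified by HPLC fluorescence. Activity from GlcCer area fraction, normalised between DMSO and ibiglustat controls.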

Sequence of glucosylceramide synthase (GCS) (Q16739 whole entry, looked up): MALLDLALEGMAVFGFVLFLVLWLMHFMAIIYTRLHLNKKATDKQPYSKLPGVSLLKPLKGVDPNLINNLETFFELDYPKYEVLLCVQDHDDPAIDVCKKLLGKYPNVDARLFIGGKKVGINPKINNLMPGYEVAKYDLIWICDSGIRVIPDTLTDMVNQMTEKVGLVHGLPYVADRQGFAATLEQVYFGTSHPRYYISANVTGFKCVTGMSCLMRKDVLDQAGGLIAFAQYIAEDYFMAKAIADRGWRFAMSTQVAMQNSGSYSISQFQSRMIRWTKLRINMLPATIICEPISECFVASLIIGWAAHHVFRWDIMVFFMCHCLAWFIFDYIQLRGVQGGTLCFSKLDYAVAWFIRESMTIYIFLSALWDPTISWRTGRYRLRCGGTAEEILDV

Take `CC1(C)CCc2cc(-c3cccc(F)c3)ccc2C1NC(=O)O[C@@H]1CN2CCC1CC2` (stereo partly drawn) [Example 90, (S)-quinuclidin-3-yl (6-(3-fluorophenyl)-2,2-dimethyl-1,2,3,4-tetrahydronaphthalen-1-yl)carbamate]: the IC50 is 4.89 nM in the assay with GM1 production and 1.01 nM in assay [1].

Consider `CC1(C)CCc2cc(-c3cccc(Cl)c3)ccc2C1NC(=O)O[C@@H]1CN2CCC1CC2` (stereo partly drawn) [Example 91, (S)-quinuclidin-3-yl (6-(3-chlorophenyl)-2,2-dimethyl-1,2,3,4-tetrahydronaphthalen-1-yl)carbamate], for which the IC50 turned out to be 2.86 nM in the assay on GM1 production and 0.81 nM in assay [1].

Take `CC1(C)CCc2cc(-c3cccc(C(F)(F)F)c3)ccc2C1NC(=O)O[C@@H]1CN2CCC1CC2` (stereo partly drawn) [Example 92, (S)-quinuclidin-3-yl (2,2-dimethyl-6-(3-(trifluoromethyl)phenyl)-1,2,3,4-tetrahydronaphthalen-1-yl)carbamate]: the IC50 in the assay on GM1 production was found to be 2.72 nM; in assay [1], 1.04 nM.

For `CC1(C)CCc2cc(-c3cccc(OC(F)(F)F)c3)ccc2C1NC(=O)O[C@@H]1CN2CCC1CC2` (stereo partly drawn) [Example 93, (S)-quinuclidin-3-yl (2,2-dimethyl-6-(3-(trifluoromethoxy)phenyl)-1,2,3,4-tetrahydronaphthalen-1-yl)carbamate], the IC50 in the assay with GM1 production turned out to be 0.388 nM; in assay [1], 1.76 nM.

For `CC1(C)CCc2cc(-c3ccccc3F)ccc2C1NC(=O)O[C@@H]1CN2CCC1CC2` (stereo partly drawn) [Example 94, (S)-quinuclidin-3-yl (6-(2-fluorophenyl)-2,2-dimethyl-1,2,3,4-tetrahydronaphthalen-1-yl)carbamate], the IC50 came to 3.1 nM in the assay on GM1 production and 0.97 nM in assay [1].

In the case of `CC1(C)CCc2cc(-c3ccccc3Cl)ccc2C1NC(=O)O[C@@H]1CN2CCC1CC2` (stereo partly drawn) [Example 95, (S)-quinuclidin-3-yl (6-(2-chlorophenyl)-2,2-dimethyl-1,2,3,4-tetrahydronaphthalen-1-yl)carbamate], the half-inhibitory concentration (IC50) was 0.123 nM in the assay with GM1 production and 0.85 nM in assay [1].

`CC1(C)CCc2cc(-c3ccccc3C(F)(F)F)ccc2C1NC(=O)O[C@@H]1CN2CCC1CC2` (stereo partly drawn) [Example 96, (S)-quinuclidin-3-yl (2,2-dimethyl-6-(2-(trifluoromethyl)phenyl)-1,2,3,4-tetrahydronaphthalen-1-yl)carbamate]: the IC50 with GM1 production came to 3.29 nM; in assay [1] it was 1.79 nM.

Consider `CC1(C)CCc2cc(-c3ccccc3OC(F)(F)F)ccc2C1NC(=O)O[C@@H]1CN2CCC1CC2` (stereo partly drawn) [Example 97, (S)-quinuclidin-3-yl (2,2-dimethyl-6-(2-(trifluoromethoxy)phenyl)-1,2,3,4-tetrahydronaphthalen-1-yl)carbamate], for which the values for the concentration for half-maximal inhibition (IC50) (in the assay on GM1 production; in assay [1]) were 1.39 nM and 0.86 nM, respectively.

`Cc1ccc(-c2ccc3c(c2)CCC(C)(C)C3NC(=O)O[C@@H]2CN3CCC2CC3)cc1` (stereo partly drawn) [Example 98, (S)-quinuclidin-3-yl (2,2-dimethyl-6-(p-tolyl)-1,2,3,4-tetrahydronaphthalen-1-yl)carbamate]: the IC50 in the assay on GM1 production was found to be 2.05 nM; in assay [1], 1.7 nM.

`CC1(C)CCc2cc(-c3ccc(OC(F)F)cc3)ccc2C1NC(=O)O[C@@H]1CN2CCC1CC2` (stereo partly drawn) [Example 99, (S)-quinuclidin-3-yl (6-(4-(difluoromethoxy)phenyl)-2,2-dimethyl-1,2,3,4-tetrahydronaphthalen-1-yl)carbamate]: the IC50 in the assay on GM1 production worked out at 2.56 nM; in assay [1] it was 1.65 nM.

Regarding `CC1(C)CCc2cc(-c3ccc(F)c(F)c3)ccc2C1NC(=O)O[C@@H]1CN2CCC1CC2` (stereo partly drawn) [Example 100, (S)-quinuclidin-3-yl (6-(3,4-difluorophenyl)-2,2-dimethyl-1,2,3,4-tetrahydronaphthalen-1-yl)carbamate], the values for the IC50 (in the assay with GM1 production; in assay [1]) were 2.59 nM and 1.78 nM, respectively.

For the compound `CC1(C)CCc2cc(-c3ccc(F)cc3F)ccc2C1NC(=O)O[C@@H]1CN2CCC1CC2` (stereo partly drawn) [Example 101, (S)-quinuclidin-3-yl (6-(2,4-difluorophenyl)-2,2-dimethyl-1,2,3,4-tetrahydronaphthalen-1-yl)carbamate], the IC50 worked out at 2.55 nM with GM1 production and 1.59 nM in assay [1].

As for `CC1(C)CCc2cc(-c3cc(F)ccc3F)ccc2C1NC(=O)O[C@@H]1CN2CCC1CC2` (stereo partly drawn) [Example 103, (S)-quinuclidin-3-yl (6-(2,5-difluorophenyl)-2,2-dimethyl-1,2,3,4-tetrahydronaphthalen-1-yl)carbamate], the figures for the IC50 (in the assay on GM1 production; in assay [1]) were 0.997 nM and 0.95 nM, respectively.

With `CC1(C)CCc2cc(-c3cc(F)cc(F)c3)ccc2C1NC(=O)O[C@@H]1CN2CCC1CC2` (stereo partly drawn) [Example 104, (S)-quinuclidin-3-yl (6-(3,5-difluorophenyl)-2,2-dimethyl-1,2,3,4-tetrahydronaphthalen-1-yl)carbamate], the IC50 in the assay on GM1 production was found to be 2.27 nM; in assay [1], 2.25 nM.

With `CC1(C)CCc2cc(-c3cc(Cl)ccc3Cl)ccc2C1NC(=O)O[C@@H]1CN2CCC1CC2` (stereo partly drawn) [Example 105, (S)-quinuclidin-3-yl (6-(2,5-dichlorophenyl)-2,2-dimethyl-1,2,3,4-tetrahydronaphthalen-1-yl)carbamate], the IC50 with GM1 production came to 0.21 nM; in assay [1] it was 1.39 nM.

Take `CC1(C)CCc2cc(-c3ccc(Cl)c(Cl)c3)ccc2C1NC(=O)O[C@@H]1CN2CCC1CC2` (stereo partly drawn) [Example 106, (S)-quinuclidin-3-yl (6-(3,4-dichlorophenyl)-2,2-dimethyl-1,2,3,4-tetrahydronaphthalen-1-yl)carbamate]: the IC50 with GM1 production was found to be 3.33 nM; in assay [1] it was 4.05 nM.

For the compound `CC1(C)CCc2cc(-c3cc(Cl)cc(Cl)c3)ccc2C1NC(=O)O[C@@H]1CN2CCC1CC2` (stereo partly drawn) [Example 107, (S)-quinuclidin-3-yl (6-(3,5-dichlorophenyl)-2,2-dimethyl-1,2,3,4-tetrahydronaphthalen-1-yl)carbamate], the IC50 in the assay on GM1 production came to 6.5 nM; in assay [1], 5.86 nM.

On to `CC1(C)CCc2cc(-c3cc(F)c(F)cc3F)ccc2C1NC(=O)O[C@@H]1CN2CCC1CC2` (stereo partly drawn) [Example 108, (S)-quinuclidin-3-yl (2,2-dimethyl-6-(2,4,5-trifluorophenyl)-1,2,3,4-tetrahydronaphthalen-1-yl)carbamate], for which the IC50 with GM1 production came out at 6.7 nM; in assay [1] it was 2.55 nM.

Regarding `CC1(C)CCc2cc(-c3ccc(F)c(F)c3F)ccc2C1NC(=O)O[C@@H]1CN2CCC1CC2` (stereo partly drawn) [Example 109, (S)-quinuclidin-3-yl (2,2-dimethyl-6-(2,3,4-trifluorophenyl)-1,2,3,4-tetrahydronaphthalen-1-yl)carbamate], the IC50 in the assay with GM1 production stood at 2.97 nM; in assay [1], 2.89 nM.

For the compound `COCCOc1ccc(-c2ccc3c(c2)CCC(C)(C)C3NC(=O)O[C@@H]2CN3CCC2CC3)cc1` (stereo partly drawn) [Example 110, (S)-quinuclidin-3-yl (6-(4-(2-methoxyethoxy)phenyl)-2,2-dimethyl-1,2,3,4-tetrahydronaphthalen-1-yl)carbamate], the figures for the IC50 (with GM1 production; in assay [1]) were 0.29 nM and 0.64 nM, respectively.

As for `COCCOc1cccc(-c2ccc3c(c2)CCC(C)(C)C3NC(=O)O[C@@H]2CN3CCC2CC3)c1` (stereo partly drawn) [Example 111, (S)-quinuclidin-3-yl (6-(3-(2-methoxyethoxy)phenyl)-2,2-dimethyl-1,2,3,4-tetrahydronaphthalen-1-yl)carbamate], the IC50 in the assay on GM1 production worked out at 1.84 nM; in assay [1], 2.36 nM.

The values above are taken from patent US12338237B2, “Derivatives having 1,2,3,4-tetrahydronaphthalene moiety or pharmaceutically acceptable salt thereof and pharmaceutical compositions comprising the same” (YUHAN CORPORATION, priority 2019, dated 2025).
